Assay results reported in patent US12281308B2, “Inhibition of protein kinases to treat Friedreich ataxia” (University of Massachusetts, priority 2018, dated 2025).

What was measured:
ACO2 and ISCU [1] = assay: Immunoblot analysis of mitochondrial Fe-S proteins in FRDA cardiomyocytes; type: cell-based, human; details: fasudil 1 μM, KD025 1 μM, ripasudil 0.5 μM
ACO2 and ISCU [2] = assay: Immunoblot analysis of mitochondrial Fe-S proteins in FRDA neurons; type: cell-based, human; details: fasudil 1 μM, KD025 1 μM, ripasudil 0.5 μM
mutant FXN gene = assay: Massively parallel short-read sequencing (RNA-seq) of FXN transcript levels in FRDA neurons; type: cell-based, human; details: vs DMSO, Illumina platform
ROCK2 = assay: qRT-PCR analysis monitoring ROCK2 expression (shRNA knockdown) in FRDA (GM23404) iPSCs; type: cell-based, human; details: FRDA (GM23404) iPSCs expressing the shRNA
From the text: (§1) FIGS. 4A-E. Identification of ROCK2 as a protein kinase that mediates repression of the mutant FXN gene. (A) qRT-PCR analysis monitoring ROCK1 and ROCK2 expression in FRDA (GM23404) iPSCs expressing the two ROCK1 shRNAs used in the experiments shown in FIGS. 1-3 (hereafter called ROCK1-1 and ROCK1-2). […] (B) qRT-PCR analysis monitoring knockdown efficiencies of selective ROCK1 (ROCK1-3) and ROCK2 shRNAs.
(§2) Of the 8 new FXN-RFs that we identified, we are particularly enthusiastic about ROCK1, a serine-threonine kinase and major effector of the small GTPase RhoA (Schofield and Bernard, Crit Rev Biochem Mol Biol, 2013, 48 (4): 301-316. ROCK1 phosphory lates a variety of substrates, some of which can affect cell signaling pathways, such as PI3K/AKT (Ruth et al., J Invest Dermatol, 2006, 126 (4): 862-868), and transcription factors, such as NF-kB (Shimizu et al., Mol Hum Reprod, 2007, 13 (3): 181-187) and Runx2 (Huang et al., Exp Ther Med, 2018, 15 (5): 4457-4464). In addition to ROCK1, mammalian cells express another ROCK isoform encoded by a distinct gene, ROCK2. […] ROCK1 and ROCK2 share ˜65% overall amino acid identity and 92% identity in their kinase domains, with 100% identity within their ATP-binding pockets (Nakagawa et al., FEBS Lett, 1996, 392 (2): 189-193; Takahashi et al., Genomics, 1999, 55 (2): 235-237). […] Thus, both ROCK1 and ROCK2 are protein kinase FXN-RFs.

ROCK1 = assay: qRT-PCR analysis monitoring ROCK1 expression (shRNA knockdown) in FRDA (GM23404) iPSCs; type: cell-based, human; details: FRDA (GM23404) iPSCs expressing the shRNA
From the text: as §1, §2

FRDA neurons = assay: Mitochondrial oxygen consumption rate (Agilent Seahorse XF Analyzer) in FRDA neurons; type: cell-based, human; details: small molecule ROCK1/2 inhibitor
From the text: (§3) FIGS. 3A-D. Inhibition of protein kinase FXN-RFs can ameliorate characteristic mitochondrial defects of FRDA post-mitotic neurons and cardiomyocytes. (A, B) Quantification of flow cytometry analysis of normal and FRDA neurons (A) or normal and FRDA CMCs (B) expressing an FXN-RF shRNA and stained with MitoSOX. (C, D) Analysis of the mitochondrial oxygen consumption rate in normal and FRDA neurons (C) or normal and FRDA CMCs (D) expressing an FXN-RF shRNA. […] (C, D) Analysis of the mitochondrial oxygen consumption rate in FRDA neurons (C) or FRDA CMCs (D) treated with a small molecule ROCK1/2 inhibitor. (E, F) Immunoblot analysis showing levels of mitochondrial proteins ACO and ISCU in FRDA neurons (E) or FRDA CMCs (F) treated with fasudil (1 μM), KD025 (1 μM), or ripasudil (0.5 μM). […] We next asked whether FXN-RF inhibition could ameliorate two characteristic mitochondrial defects of FRDA neurons and cardiomyocytes: increased levels of reactive oxygen species (ROS) and decreased oxygen consumption. In the first set of experiments, FRDA neurons and cardiomyocytes expressing a protein kinase FXN-RF shRNA were stained with MitoSOX (an indicator of mitochondrial superoxide levels and mitochondrial ROS production) followed by flow cytometry analysis. As expected. FRDA neurons and cardiomyocytes had increased levels of mitochondrial ROS production compared to normal neurons and cardiomyocytes (FIGS. 3A, B). […] In the second set of experiments, we measured mitochondrial oxygen consumption rate, which is related to ATP production, using an Agilent Seahorse XF Analyzer. As expected, mitochondrial oxygen consumption rate in FRDA neurons and cardiomyocytes was ˜60% of the level observed in normal neurons and cardiomyocytes (FIGS. 3C, D).

FRDA cardiomyocytes = assay: Mitochondrial oxygen consumption rate (Agilent Seahorse XF Analyzer) in FRDA cardiomyocytes; type: cell-based, human; details: small molecule ROCK1/2 inhibitor
From the text: as §3

ROCK1/2 = details: literature; cited from earlier work

Row | Molecule | levels of ACO2 (ACO2 and ISCU [1]) | levels of ISCU (ACO2 and ISCU [1]) | levels of ACO2 (ACO2 and ISCU [2]) | levels of ISCU (ACO2 and ISCU [2]) | FXN transcript levels (RNA-seq) (mutant FXN gene) | ROCK2 expression (knockdown) (ROCK2) | ROCK1 expression (knockdown) (ROCK1) | mitochondrial oxygen consumption rate (FRDA neurons) | mitochondrial oxygen consumption rate (FRDA cardiomyocytes) | oral activity (ROCK1/2) | tolerability / adverse effects (ROCK1/2)
1 | CC(C)NC(=O)COc1cccc(-c2nc(Nc3ccc4[nH]ncc4c3)c3ccccc3n2)c1 [KD025] | increased levels of ACO2 and ISCU comparable to that observed in normal neurons and cardiomyocytes | increased levels of ACO2 and ISCU comparable to that observed in normal neurons and cardiomyocytes | increased levels of ACO2 and ISCU comparable to that observed in normal neurons and cardiomyocytes | increased levels of ACO2 and ISCU comparable to that observed in normal neurons and cardiomyocytes | Upregulation of the mutant FXN gene |  |  |  |  |  | 
2 | ROCK1-2: ROCK1 shRNA (2), SEQ ID NO: 12; knocks down both ROCK1 and ROCK2 (CCGGGCATTCCAAGATGATCGTTATCTCGAGATAACGATCATCTTGGAATGCTTTTTG) |  |  |  |  |  | knocked down both ROCK1 and ROCK2 | knocked down both ROCK1 and ROCK2 |  |  |  | 
3 | C[C@@H](N)[C@H]1CC[C@H](C(=O)Nc2ccncc2)CC1.Cl.Cl [Y27632, (+)-(R)-trans-4-(1-aminoethyl)-N-(4-pyridyl)cyclohexanecarboxamide dihydrochloride] |  |  |  |  |  |  |  | increased mitochondrial oxygen consumption rate | increased mitochondrial oxygen consumption rate |  | 
4 | ROCK1-3: selective ROCK1 shRNA (3), SEQ ID NO: 13 (CCGGGCACCAGTTGTACCCGATTTACTCGAGTAAATCGGGTACAACTGGTGCTTTTTG) |  |  |  |  |  | knocked down ROCK1 but not ROCK2 | knocked down ROCK1 |  |  |  | 
5 | ROCK1-1: ROCK1 shRNA (1), SEQ ID NO: 11; knocks down both ROCK1 and ROCK2 (CCGGCGGGTTGTTCAGATTGAGAAACTCGAGTTTCTCAATCTGAACAACCCGTTTTTG) |  |  |  |  |  | knocked down both ROCK1 and ROCK2 | knocked down both ROCK1 and ROCK2 |  |  |  | 
6 | ROCK2 shRNA: selective ROCK2 shRNA, SEQ ID NO: 14 (CCGGGCACCAGTTGTACCCGATTTACTCGAGTAAATCGGGTACAACTGGTGCTTTTTG) |  |  |  |  |  | knocked down ROCK2 | knocked down ROCK2 but not ROCK1 |  |  |  | 
7 | O=S(=O)(c1cccc2cnccc12)N1CCCNCC1 [fasudil, 1-(5-isoquinolinesulfonyl)-homopiperazine] | increased levels of ACO2 and ISCU comparable to that observed in normal neurons and cardiomyocytes | increased levels of ACO2 and ISCU comparable to that observed in normal neurons and cardiomyocytes | increased levels of ACO2 and ISCU comparable to that observed in normal neurons and cardiomyocytes | increased levels of ACO2 and ISCU comparable to that observed in normal neurons and cardiomyocytes | Upregulation of the mutant FXN gene |  |  | increased mitochondrial oxygen consumption rate | increased mitochondrial oxygen consumption rate | orally active | well tolerated without adverse effects
8 | C[C@H]1CNCCCN1S(=O)(=O)c1cccc2cncc(F)c12 [ripasudil, 4-fluoro-5-[[(2S)-2-methyl-1,4-diazepan-1-yl]sulfonyl]isoquinoline] | increased levels of ACO2 and ISCU comparable to that observed in normal neurons and cardiomyocytes | increased levels of ACO2 and ISCU comparable to that observed in normal neurons and cardiomyocytes | increased levels of ACO2 and ISCU comparable to that observed in normal neurons and cardiomyocytes | increased levels of ACO2 and ISCU comparable to that observed in normal neurons and cardiomyocytes |  |  |  | increased mitochondrial oxygen consumption rate | increased mitochondrial oxygen consumption rate | orally active | well tolerated without adverse effects
